Holding throughout (test): NCI-60 cell line screen, 48 h
The subject of experiment [1] is HOP-92 NSCLC.
Experiment [2] relates to HT29 colon.
The test system of experiment [3] is MOLT-4 leukemia.
Experiment [4] has as its system NCI-H522 lung.
The subject of experiment [5] is SF-268 CNS.
Experiment [6] deals with SK-MEL-2 melanoma.
The test system of experiment [7] is SNB-75 CNS.
The subject of experiment [8] is SR leukemia.
Experiment [9] concerns UACC-257 melanoma.
Experiment [10] concerns OVCAR-5 ovarian.

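Values below derive from 48-hour exposures of cells grown in 96-well plates, with endpoints linearly interpolated between the two concentrations bracketing the appropriate inhibition level. The concentration for 50% growth inhibition is given as GI50. At the TGI there is no net growth.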

Consider `CCOC(=O)c1c(C)n(Cc2ccc(Cl)cc2Cl)c2c1c(CN(C)C)c(O)c1[nH]cnc12`, for which the GI50 in experiment [1] is 2.74 µM; in experiment [2], 18 µM; in [3], 0.908 µM; in [4], 17.1 µM; in [5], 15.1 µM; in experiment [6] it was 19.9 µM. In addition, the values for the GI50 in [7], in [8] and in experiment [9] were 3.55 µM, 0.557 µM and 20.5 µM, respectively. Moreover, the TGI amounted to 13.3 µM in [1]; 31.8 µM in experiment [2]; 4.52 µM in experiment [3]; 33.4 µM in experiment [4]; 28.3 µM in experiment [5]; 39.8 µM in [6]. Moreover, the TGI in experiment [7] came out at 17 µM; in experiment [8] it was 4.76 µM; in experiment [9], 39.5 µM.
On to `CCC[CH2][Sn]1([CH2]CCC)[O]CC(CN2CCCC2)[O]1` (configuration not stated), for which the GI50 is 8.45 µM in experiment [1]; 11.1 µM in experiment [2]; 14.3 µM in experiment [3]; 3.32 µM in experiment [4]; 12.9 µM in experiment [10]; 13.8 µM in experiment [6]. The results for the GI50 in [7], in [8] and in experiment [9] were 14.4 µM, 10.4 µM and 14.3 µM, respectively. The TGI is 23.8 µM in experiment [1]; 30.7 µM in experiment [2]; 50.4 µM in experiment [3]; 11.1 µM in experiment [4]; 27.7 µM in [10]; 27.1 µM in [6]. The figures for the TGI in experiment [7], in experiment [8] and in experiment [9] were 40.9 µM, 39.5 µM and 29.7 µM, respectively.
Consider `COC1(OC)C2(Cl)C(Cl)=C(Cl)C1(Cl)C1C=CC=CC12` (configuration not stated), for which the TGI is above 100 µM in experiment [1]; above 100 µM in [2]; above 100 µM in [4]; above 100 µM in experiment [10]; above 100 µM in experiment [5]; 63 µM in experiment [6]. The TGI in experiment [7], in experiment [8] and in [9] was above 100 µM throughout.
Regarding `NC(N)=N/N=C(\c1nc2ccc([N+](=O)[O-])cc2[nH]c1=O)C(O)c1ccc([N+](=O)[O-])cc1` (configuration not stated), the TGI in experiment [1] is above 100 µM; in experiment [2], above 100 µM; in experiment [3], above 100 µM; in experiment [4] it was 89.6 µM; in experiment [10], above 100 µM; in experiment [5] it was above 100 µM. The TGI in [7], in [8] and in experiment [9] was above 100 µM each time.
For `Cc1ccn2c(c1)nc1nc3ccccc3nc12`, the TGI in [1], in experiment [2], in experiment [4], in experiment [10], in experiment [5] and in [6] was above 100 µM in each case. Further, the TGI in [7], in experiment [8] and in [9] was above 100 µM in each case.
Turning to `CCCN1CCC(=O)N(CCC(F)(F)C(F)(F)C(F)(F)C(F)(F)C(F)(F)C(F)(F)F)C1=S`, the TGI in [1], in [2], in [3], in experiment [4], in [10] and in experiment [5] was above 100 µM throughout. For the same compound, the TGI in experiment [7], in experiment [8] and in experiment [9] was above 100 µM throughout.
As to `CCCCC(O)(c1ccc(Cl)cc1)C(CN1CCOCC1)c1ccc(Cl)cc1` (configuration not stated), the GI50 is 10.6 µM in experiment [1]; 4.14 µM in experiment [2]; 10.7 µM in experiment [3]; 7.26 µM in experiment [4]; 10.7 µM in experiment [10]; 12.6 µM in [5]. The GI50 was 16.8 µM in experiment [7], 12.5 µM in experiment [8] and 14.3 µM in experiment [9]. Moreover, the TGI is 23.6 µM in experiment [1]; 18.2 µM in [2]; 30.7 µM in [3]; 21.7 µM in experiment [4]; 23.7 µM in experiment [10]; 27.2 µM in [5]. For the same compound, the TGI in [7] came to 44.7 µM; in [8] it was 32.3 µM; in [9] it was 35 µM.
For `C[C@@H]1CC(=O)C2CCCC1C2=O` (some centres not stated), the TGI in experiment [1], in experiment [2], in experiment [3], in experiment [4], in [10] and in [5] was above 100 µM throughout. The TGI in [7], in experiment [8] and in [9] was above 100 µM throughout.
`C[C@@]12CC=C3c4nc(Nc5cccc(O)c5)sc4CC[C@]3(C)[C@H]1CC[C@]1(C)C(=O)CC[C@@H]21`: the GI50 in experiment [1] is 1.93 µM; in experiment [2], 1.96 µM; in experiment [4], 2.14 µM; in [10], 2.58 µM; in [5], 2.1 µM; in [6], 2.86 µM. Also, the GI50 in experiment [7] is 3.19 µM; in experiment [8] it was 1.87 µM; in experiment [9], 3.69 µM. Moreover, the TGI in experiment [1] worked out at 5.32 µM; in experiment [2], 6.43 µM; in experiment [4], 4.64 µM; in experiment [10], 7.26 µM; in experiment [5], 7.12 µM; in [6], 9.99 µM. In addition, the TGI in [7], in experiment [8] and in [9] was above 100 µM throughout.

These data come from PubChem BioAssay (NCI).
